From ChEMBL document CHEMBL1126971, “Structure-activity relationships from molecular similarity matrices” (J Med Chem, 1993) come the findings set out here.

The target of assay [1] is T1, Corticosteroid-binding globulin (Homo sapiens) (UniProt P08185).
T1 sequence (whole entry): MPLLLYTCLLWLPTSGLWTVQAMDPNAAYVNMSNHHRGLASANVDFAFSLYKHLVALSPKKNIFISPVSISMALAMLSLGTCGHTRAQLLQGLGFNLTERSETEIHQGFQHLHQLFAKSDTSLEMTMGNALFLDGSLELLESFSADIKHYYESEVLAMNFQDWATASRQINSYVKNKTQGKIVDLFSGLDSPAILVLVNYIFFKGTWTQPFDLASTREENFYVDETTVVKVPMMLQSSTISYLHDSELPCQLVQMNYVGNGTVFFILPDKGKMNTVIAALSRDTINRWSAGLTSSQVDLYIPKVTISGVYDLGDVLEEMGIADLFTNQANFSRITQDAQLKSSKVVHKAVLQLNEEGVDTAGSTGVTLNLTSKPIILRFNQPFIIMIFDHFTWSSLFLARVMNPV

The target in assay [2] is T2, Sex hormone-binding globulin (Homo sapiens) (UniProt P04278).
T2 sequence (whole entry): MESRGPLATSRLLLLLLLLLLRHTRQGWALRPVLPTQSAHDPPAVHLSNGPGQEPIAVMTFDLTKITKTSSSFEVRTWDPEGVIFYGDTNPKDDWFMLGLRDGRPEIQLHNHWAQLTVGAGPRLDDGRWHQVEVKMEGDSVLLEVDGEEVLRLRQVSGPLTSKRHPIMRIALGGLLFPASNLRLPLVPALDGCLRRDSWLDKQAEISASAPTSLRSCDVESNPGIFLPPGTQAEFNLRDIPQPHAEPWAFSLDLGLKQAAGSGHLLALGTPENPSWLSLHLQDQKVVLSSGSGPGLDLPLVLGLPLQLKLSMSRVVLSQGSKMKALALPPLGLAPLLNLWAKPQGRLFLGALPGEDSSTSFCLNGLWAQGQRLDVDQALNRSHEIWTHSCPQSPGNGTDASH
Description: Binding affinity against testosterone-binding globulin (TeBG)

Assay [3] concerns the target T1, Corticosteroid-binding globulin (Homo sapiens). As to the kind of experiment: Binding affinity against corticosteroid-binding globulin (CBG).
For assay [4] the target is unchanged. The source holds these as a separate data set.
Description: Corticosteroid binding globulin

As for `CC(=O)[C@@]1(O)CC[C@H]2[C@@H]3CCC4=CC(=O)CC[C@]4(C)[C@H]3CC[C@@]21C`, the Log 1/K in assay [1] amounted to 7.74; in assay [2] it was 7.

With `C[C@]12CCC(=O)C=C1CC[C@@H]1[C@@H]2C(=O)C[C@@]2(C)[C@H]1CC[C@]2(O)C(=O)CO`, the Log 1/K in assay [1] came out at 6.89; in assay [2], 6.43.

On to `C[C@]12CC[C@@H]3c4ccc(O)cc4CC[C@H]3[C@@H]1C[C@@H](O)[C@H]2O`, for which the Log 1/K in assay [1] turned out to be 5; in assay [2], 6.63.

`C[C@]12CC[C@H]3[C@@H](CCC4=CC(=O)CC[C@@]43C)[C@@H]1CC[C@@H]2C(=O)CO`: the Log 1/K turned out to be 7.65 in assay [1] and 7.38 in assay [2].

For `CC(=O)[C@@]1(O)CC[C@H]2[C@@H]3CC=C4C[C@@H](O)CC[C@]4(C)[C@H]3CC[C@@]21C`, the Log 1/K in assay [1] came out at 5; in assay [2], 6.36.

In turn, `CC(=O)OCC(=O)[C@@]1(O)CCC2C3CCC4=CC(=O)CC[C@]4(C)C3C(O)C[C@@]21C` (some centres not stated) yielded a Log 1/K in assay [1] of 7.55.

Turning to `C[C@]12C[C@H](O)[C@H]3[C@@H](CCC4=CC(=O)CC[C@@]43C)[C@@H]1CC[C@@H]2C(=O)CO`, the Log 1/K in assay [1] came to 7.88; in assay [2], 6.34.

`CC(=O)[C@H]1CC[C@H]2[C@@H]3CCC4=CC(=O)CC[C@]4(C)[C@H]3C(=O)C[C@]12C` had a Log 1/K in assay [1] of 6.78.

Consider `C[C@]12CCC(=O)C=C1CCC1C3CC[C@H](C(=O)CO)[C@@]34C[C@H](OC4O)C12` (some centres not stated), for which the Log 1/K in assay [3] was 6.28; in assay [2] it was 5.32.

Consider `C[C@]12CCC(=O)C=C1CC[C@@H]1[C@@H]2CC[C@@]2(C)[C@H]1CC[C@]2(O)C(=O)CO`, for which the Log 1/K in assay [1] was found to be 7.88; in assay [2] it was 7.2.

In the case of `C[C@]12C[C@@H](O)[C@H]3[C@@H](CCC4=CC(=O)CC[C@@]43C)[C@@H]1CC[C@@H]2C(=O)CO`, in assay [1], the Log 1/K was 7.2.

In assay [1], `CC(=O)[C@H]1CC[C@H]2[C@@H]3CCC4=CC(=O)CC[C@@H]4[C@H]3CC[C@]12C` displayed a Log 1/K of 6.82.

With `CC(=O)[C@H]1CC[C@H]2[C@@H]3CCC4=CC(=O)CC[C@]4(C)[C@H]3CC[C@]12C`, the Log 1/K in assay [4] is -7.38; in assay [2], 6.94.

With `C[C@]12CC[C@H](O)CC1=CC[C@@H]1[C@@H]2CC[C@]2(C)C(=O)CC[C@@H]12`, the Log 1/K was determined as 5 in assay [1] and 7.82 in assay [2].

As to `CC(=O)[C@H]1CC[C@H]2[C@@H]3CC=C4C[C@@H](O)CC[C@]4(C)[C@H]3CC[C@]12C`, the values for the Log 1/K in assay [1] and in assay [2] were 5.22 and 7.15, respectively.

With `C[C@@H]1C[C@@]2(C)C(=CC1=O)CCC1C3CCC(C(=O)CO)[C@@]3(C)CC(O)[C@@]12F` (some centres not stated), in assay [1], the Log 1/K amounted to 5.8.

`C[C@]12CCC(=O)C=C1CC[C@@H]1[C@@H]2CC[C@]2(C)C(=O)CC[C@@H]12`: the values for the Log 1/K in assay [1] and in assay [2] were 5.76 and 7.46, respectively.

With `C[C@]12CCC(=O)C=C1CC[C@@H]1[C@@H]2[C@@H](O)C[C@@]2(C)[C@H]1CC[C@]2(O)C(=O)CO`, the Log 1/K is 7.88 in assay [1] and 6.2 in assay [2].

As to `C[C@]12CC[C@H](O)C[C@@H]1CC[C@@H]1[C@@H]2CC[C@]2(C)[C@@H](O)CC[C@@H]12`, the Log 1/K in assay [1] was 5; in assay [2], 9.11.

On to `CC(=O)[C@@]1(O)[C@H](O)C[C@H]2[C@@H]3CCC4=CC(=O)CC[C@]4(C)[C@H]3CC[C@@]21C`, for which the Log 1/K in assay [1] worked out at 6.25.

The compound `C[C@]12C=CC(=O)C=C1CC[C@@H]1[C@@H]2[C@@H](O)C[C@@]2(C)[C@H]1CC[C@]2(O)C(=O)CO` displayed a Log 1/K in assay [1] of 7.51.

Compound `CC(=O)[C@@]1(C)CCC2C3CCC4=CC(=O)CC[C@]4(C)C3CC[C@@]21C` (some centres not stated) had a Log 1/K in assay [1] of 7.12.

For the compound `C[C@]12CC[C@H]3[C@@H](CCC4=CC(=O)CC[C@@H]43)[C@@H]1CC[C@@H]2O`, in assay [1], the Log 1/K turned out to be 6.14.
